Measured values published in ChEMBL document CHEMBL4196193, “Calothrixamides A and B from the Cultured Cyanobacterium Calothrix sp. UIC 10520” (J Nat Prod, 2018).
The source made the active and inactive calls. The rule behind the calls is not given here.

What was measured:
Assay type in all cases: functional, cell-based
[1] = system: MDA-MB-435; test: Cytotoxicity against human MDA-MB-435 cells at 10 uM after 72 hrs by CellTiter 96 AQueous One Solution Cell Proliferation Assay
[2] = system: MDA-MB-231; test: Cytotoxicity against human MDA-MB-231 cells at 10 uM after 72 hrs by CellTiter 96 AQueous One Solution Cell Proliferation Assay
[3] = system: OVCAR-3; test: Cytotoxicity against human OVCAR3 cells at 10 uM after 72 hrs by CellTiter 96 AQueous One Solution Cell Proliferation Assay
[4] = system: MDA-MB-435; test: Cytotoxicity against human MDA-MB-435 cells after 72 hrs by CellTiter 96 AQueous One Solution Cell Proliferation Assay; details: MDA-MB-435, 72 h
[5] = system: MDA-MB-231; test: Cytotoxicity against human MDA-MB-231 cells after 72 hrs by CellTiter 96 AQueous One Solution Cell Proliferation Assay; details: MDA-MB-231, 72 h
[6] = system: OVCAR-3; test: Cytotoxicity against human OVCAR3 cells after 72 hrs by CellTiter 96 AQueous One Solution Cell Proliferation Assay; details: OVCAR-3, 72 h

Structure (SMILES)	Activity [1]	Activity [2]	Activity [3]	IC50 [4]	IC50 [5]	IC50 [6]
C=CCCCC[C@H](C)[C@@H](CCCCCCCCC(C)/C=C\C=C(/C)C(=O)N[C@@H](C)CO)OC(N)=O (some centres undefined)	inactive	inactive	inactive			
CCCCCC[C@H](C)[C@@H](CCCCCCCCC(C)/C=C\C=C(/C)C(=O)N[C@@H](C)CO)OC(N)=O (some centres undefined)	inactive	inactive	inactive			
CC(=O)O[C@H]1C(=O)[C@@]2(C)[C@H]([C@H](OC(=O)c3ccccc3)[C@]3(O)C[C@H](OC(=O)[C@H](O)[C@@H](NC(=O)c4ccccc4)c4ccccc4)C(C)=C1C3(C)C)[C@]1(OC(C)=O)CO[C@@H]1C[C@@H]2O [PACLITAXEL]				3.1 nM	2.6 nM	7.5 nM
